Test results taken from ChEMBL document CHEMBL1201862, “PubChem BioAssay data set” (2004).
Active and inactive are the calls of the source.

Columns and labels:
cells = format: functional, cell-based; settings: INS-1E
[1] = HeLa 2N DNA content increase, dose response, cell-based, IC50 (AID 1117349); format: functional
[2] = Dose-response inhibition of insulin secretion in a rat insulinoma line at 5 mM glucose (AID 1117331); format: functional, cell-based; settings: INS-1E
[3] = HeLa 4N DNA content increase, dose response, cell-based, IC50 (AID 1117351); format: functional
[4] = target: T1, Voltage-gated N-type calcium channel alpha-1B subunit/Amyloid beta A4 precursor protein-binding family A member 1 (Homo sapiens, UniProt Q00975+Q02410); format: protein assay
[5] = target: T2, Carboxy-terminal domain RNA polymerase II polypeptide A small phosphatase 1 (Homo sapiens, UniProt Q9GZU7); assay: inhibitors of CTDSP1, concentration-response testing, biochemical assay, absorbance-based, actives from ultra-high-throughput screening (AID 540297); format: functional
T2 sequence (Q9GZU7 whole entry): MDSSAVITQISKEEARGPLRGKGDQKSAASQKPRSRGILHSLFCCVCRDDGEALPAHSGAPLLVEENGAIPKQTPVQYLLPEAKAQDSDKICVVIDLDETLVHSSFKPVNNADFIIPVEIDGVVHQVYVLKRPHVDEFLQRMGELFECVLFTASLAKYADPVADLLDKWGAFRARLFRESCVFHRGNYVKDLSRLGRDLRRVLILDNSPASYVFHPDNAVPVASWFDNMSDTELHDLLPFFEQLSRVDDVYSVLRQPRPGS

[6] = target: T1, Voltage-gated N-type calcium channel alpha-1B subunit/Amyloid beta A4 precursor protein-binding family A member 1; format: protein assay; remark: listed apart in the source
Protein Tat = Protein Tat (Human immunodeficiency virus type 1 group M subtype B (isolate HXB2)(HIV-1), UniProt P04608); format: functional;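 also: tat binding to TAR RNA read out by fluorescence polarization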
[7] = target: T3, Tyrosine-protein phosphatase non-receptor type 7 (Homo sapiens, UniProt P35236); assay: inhibitors of human HePTP phosphatase, […], biochemical, absorbance, leukemia target (AID 521); format: functional
T3 sequence (P35236 whole entry): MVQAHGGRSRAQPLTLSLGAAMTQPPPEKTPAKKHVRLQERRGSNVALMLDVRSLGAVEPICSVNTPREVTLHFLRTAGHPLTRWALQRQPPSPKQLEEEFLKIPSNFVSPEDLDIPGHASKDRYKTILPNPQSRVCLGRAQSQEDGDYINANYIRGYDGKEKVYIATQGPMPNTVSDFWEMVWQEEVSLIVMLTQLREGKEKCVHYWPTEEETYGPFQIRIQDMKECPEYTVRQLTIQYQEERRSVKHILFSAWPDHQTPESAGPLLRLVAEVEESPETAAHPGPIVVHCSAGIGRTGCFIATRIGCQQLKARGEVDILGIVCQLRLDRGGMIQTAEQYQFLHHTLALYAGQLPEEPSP

[8] = P. falciparum ATP4 D1247Y mutant growth inhibitors, dose response, NITD609-resistant line, SYBR Green, dry powder (AID 1159571); format: functional, cell-based;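 also: parasites synchronized at ring stage by sorbitol before testing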
[9] = P. falciparum Dd2 growth inhibitors, dose response, SYBR Green, cherry-picked samples (AID 1159567); format: functional, cell-based
[10] = Plasmodium falciparum Dd2 Sybr green parasite growth Measured in Cell-Based and Microorganism Combination System Using Plate Reader - 2153-01_Inhibitor_Dose_DryPowder_Activity_Set3.; format: functional
[11] = P. falciparum Dd2 growth inhibitors, dose response, SYBR Green, dry powder samples (AID 1159566); format: functional, cell-based;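 also: potency for growth inhibition with lower SYBR green DNA signal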
[12] = HepG2 cell cytotoxicity, dose response, cytotoxicity control, cherry-picked samples (AID 1159577); format: functional, cell-based
[13] = HepG2 cell cytotoxicity, dose response, cytotoxicity control, plate reader, dry powder samples (AID 1159569); format: functional, cell-based;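 also: inhibitor potency with signal falling toward the positive control level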
[14] = P. falciparum 3D7-ScDHODH growth inhibitors, dose response, SYBR Green, dry powder samples (AID 1159570); format: functional, cell-based;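 also: parasite growth measured after 72 hours of compound exposure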
[15] = P. falciparum Dd2 growth inhibitors, dose response, SYBR Green, dry powder samples, set 9 (AID 1159568); format: functional, cell-based
[16] = P. falciparum late gametocyte killing, dose response, luminescence (AID 1117278); format: functional, cell-based;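 also: gametocytes exposed to compound for 24 hours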
[17] = Jurkat T cell cytotoxicity, dose response, cytotoxicity control for P. falciparum gametocyte viability project, luminescence (AID 1117277); format: functional, cell-based;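 also: potency reflects loss of cellular ATP meaning fewer viable cells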
[18] = HEK293 cell cytotoxicity, dose response, cytotoxicity control, plate reader, cherry-picked samples (AID 743446); format: functional, cell-based
[19] = target: T4, COUP transcription factor 2 (Homo sapiens, UniProt P24468); assay: Luminescence-based cell-based high throughput dose response assay to identify inhibitors of COUP-TFII (NR2F2).; format: functional;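 also: HEK293 cells transiently cotransfected with COUP-TFII expression vector and reporter; luciferase reporter luminescence driven by COUP-TFII from the pX2-168 reporter plasmid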
T4 sequence (P24468 whole entry): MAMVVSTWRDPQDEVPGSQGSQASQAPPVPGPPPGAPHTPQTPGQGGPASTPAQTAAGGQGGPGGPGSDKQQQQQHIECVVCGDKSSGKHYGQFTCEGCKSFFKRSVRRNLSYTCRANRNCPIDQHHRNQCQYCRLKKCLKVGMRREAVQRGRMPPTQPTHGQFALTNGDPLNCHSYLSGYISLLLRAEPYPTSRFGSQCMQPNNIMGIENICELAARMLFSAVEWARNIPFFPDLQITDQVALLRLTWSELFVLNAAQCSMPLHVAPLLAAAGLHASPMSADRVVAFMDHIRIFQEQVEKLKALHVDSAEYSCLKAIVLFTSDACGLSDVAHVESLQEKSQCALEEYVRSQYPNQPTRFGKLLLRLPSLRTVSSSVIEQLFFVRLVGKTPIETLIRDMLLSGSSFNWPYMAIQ

[20] = cytotoxicity toward DRD oncogenic fibroblasts, dose response, cell-based, non-viral oncogenic, luminescence (AID 1934); format: functional; settings: Homo sapiens
BJ [21] = assay: cytotoxicity toward BJ-TERT fibroblasts, dose response, cell-based, RAS-independent, luminescence (AID 1933); format: functional; settings: Homo sapiens
Vero [22] = assay: cells; format: functional, Chlorocebus sabaeus; settings: Chlorocebus sabaeus, Vero
BJ [23] = assay: cytotoxicity toward BJ-TERT-LT-ST fibroblasts, dose response, cell-based, RAS-independent, luminescence (AID 1935); format: functional; settings: Homo sapiens;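 also: BJ fibroblasts immortalized with TERT plus LT and ST oncogenes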
[24] = MC4R antagonists, dose response, counter-screen for LGR2 antagonist project, cell-based, plate reader, cherry pick (AID 743444); format: functional;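 also: transfected HEK 293 cells stimulated with alpha-MSH peptide; potency of inhibitors of the alpha-MSH evoked signal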
Vero [25] = assay: cells; format: functional, cell-based; settings: Chlorocebus sabaeus
[26] = HepG2 cell cytotoxicity, dose response, cytotoxicity control for Shn3 inhibitor project, CellTiter-Glo, cherry-picked (AID 624134); format: functional, cell-based
[27] = control 3'UTR Renilla luciferase suppression, dose response, counter-screen for Shn3 inhibitor project, cell-based, Clone20-Shn3RL, cherry-picked (AID 624133); format: functional
[28] = A549 cell cytotoxicity, dose response, cytotoxicity control, plate reader, cherry-pick, antagonist series (AID 743412); format: functional, cell-based
[29] = target: E3 ubiquitin-protein ligase Mdm2 (Homo sapiens, UniProt Q00987); assay: enhancers of MDM2-luciferase reporter signal, concentration-effect titration, project on inhibitors of MDM2 ubiquitin ligase, cellular assay, luminescent readout, 384-well plate format (AID 1394); format: functional;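 also: MDM2 E3 inhibitors raise luminescence so EC50 is for signal enhancement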
BJ [30] = assay: cells; format: functional, cell-based; settings: Homo sapiens
[31] = Shn3 3'UTR reporter inhibitors, dose response, cell-based, Clone20 osteoblasts, firefly luciferase, cherry-picked (AID 624132); format: functional;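 also: firefly luciferase luminescence from reporter carrying the Shn3 3'UTR in osteoblasts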
[32] = HepG2 cell cytotoxicity, dose response, cytotoxicity control, plate reader, cherry-pick, antagonist series (AID 743416); format: functional, cell-based
[33] = LGR2 antagonists, dose response, cell-based, HEK293, CRE-luciferase reporter, cherry pick, set 2 (AID 743343); format: functional;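 also: transfected cells were stimulated with diluted bursicon conditioned medium after compound addition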
[34] = target: Ubiquitin carboxyl-terminal hydrolase BAP1 (Homo sapiens, UniProt Q92560); assay: BAP1 deubiquitinase inhibitors, dose response, biochemical (AID 714); format: functional
[35] = CellTiter-Glo luminescent dose response of DLD-1 viability loss (AID 1117352); format: functional
[36] = cytotoxicity toward HCT116 cells – cell-based, CellTiter-Glo luminescence, IC50, dose response (AID 1117332); format: functional; settings: HCT-116
[37] = SNU-C1 cell viability reduction, dose response, CellTiter-Glo luminescence (AID 1117323); format: functional, cell-based
[38] = Concentration-dependent survival of SW480 colon cancer line, luminescence detection with CellTiter-Glo, half-maximal inhibitory concentration (AID 1117338); format: functional
[39] = cytotoxicity toward HT-29 cells – cell-based, CellTiter-Glo luminescence, IC50, dose response (AID 1117330); format: functional
[40] = HCT116 cell viability decrease, GSK3B pretreatment – CellTiter-Glo, IC50, dose response (AID 1117339); format: functional; settings: HCT-116
[41] = target: Mitogen-activated protein kinase 10 (Homo sapiens, UniProt P53779); assay: Dose response biochemical screening assay for inhibitors of c-Jun N-Terminal Kinase 3 (JNK3). [Related pubchem assays: 746 ]
[42] = target: 5-hydroxytryptamine receptor 1A (Homo sapiens, UniProt P08908); format: functional
[43] = NIH-3T3 fibroblast cytotoxicity, dose response, cytotoxicity control, cell-based, fluorescence, Alamar Blue, secondary assay (AID 2327); format: functional;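 also: NIH-3T3 mouse fibroblasts cultured with fluconazole at 8 µg/mL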
[44] = HEp-2 cell cytotoxicity, dose response, cytotoxicity control for RSV inhibitor project, HTS (AID 2410); format: functional; settings: human respiratory syncytial virus
[45] = target: T5, Heat shock factor protein 1 (Mus musculus, UniProt P38532); assay: inhibition of MG132-induced HSE-luciferase signal, confirmation, cell-based, NIH3T3, luminescence, dose retest (AID 2382); format: functional;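 also: NIH3T3 fibroblasts with HSF1-driven luciferase reporter stressed by proteasome inhibitor MG132; luminescence from HSF1-driven luciferase expression after 8 hours of MG132 stress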
T5 sequence (P38532 whole entry): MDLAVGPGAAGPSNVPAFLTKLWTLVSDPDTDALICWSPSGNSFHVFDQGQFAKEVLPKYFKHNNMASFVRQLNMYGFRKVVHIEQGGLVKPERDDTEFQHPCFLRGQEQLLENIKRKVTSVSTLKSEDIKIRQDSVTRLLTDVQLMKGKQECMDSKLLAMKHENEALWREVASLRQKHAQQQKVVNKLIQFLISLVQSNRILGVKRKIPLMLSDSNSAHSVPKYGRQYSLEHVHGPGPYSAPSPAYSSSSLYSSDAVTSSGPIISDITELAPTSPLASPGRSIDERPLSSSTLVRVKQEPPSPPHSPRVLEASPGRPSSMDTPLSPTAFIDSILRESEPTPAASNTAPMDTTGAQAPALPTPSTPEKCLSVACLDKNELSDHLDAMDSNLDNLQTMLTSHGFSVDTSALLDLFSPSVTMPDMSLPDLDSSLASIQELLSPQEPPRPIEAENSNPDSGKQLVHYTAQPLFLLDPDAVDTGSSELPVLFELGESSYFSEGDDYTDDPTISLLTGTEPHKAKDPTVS

Ephrin type-A receptor 4 = Ephrin type-A receptor 4 (Mus musculus, UniProt Q03137); assay: inhibitors of EphA4 binding to KYL peptide, primary screen, biochemical, colorimetric, mouse EphA4 (AID 689); format: functional
[46] = C. albicans growth with fluconazole, confirmation, fluorescence, retest (AID 2467); format: functional, cell-based

T1 sequence (Q00975 whole entry, the tested form may be a part): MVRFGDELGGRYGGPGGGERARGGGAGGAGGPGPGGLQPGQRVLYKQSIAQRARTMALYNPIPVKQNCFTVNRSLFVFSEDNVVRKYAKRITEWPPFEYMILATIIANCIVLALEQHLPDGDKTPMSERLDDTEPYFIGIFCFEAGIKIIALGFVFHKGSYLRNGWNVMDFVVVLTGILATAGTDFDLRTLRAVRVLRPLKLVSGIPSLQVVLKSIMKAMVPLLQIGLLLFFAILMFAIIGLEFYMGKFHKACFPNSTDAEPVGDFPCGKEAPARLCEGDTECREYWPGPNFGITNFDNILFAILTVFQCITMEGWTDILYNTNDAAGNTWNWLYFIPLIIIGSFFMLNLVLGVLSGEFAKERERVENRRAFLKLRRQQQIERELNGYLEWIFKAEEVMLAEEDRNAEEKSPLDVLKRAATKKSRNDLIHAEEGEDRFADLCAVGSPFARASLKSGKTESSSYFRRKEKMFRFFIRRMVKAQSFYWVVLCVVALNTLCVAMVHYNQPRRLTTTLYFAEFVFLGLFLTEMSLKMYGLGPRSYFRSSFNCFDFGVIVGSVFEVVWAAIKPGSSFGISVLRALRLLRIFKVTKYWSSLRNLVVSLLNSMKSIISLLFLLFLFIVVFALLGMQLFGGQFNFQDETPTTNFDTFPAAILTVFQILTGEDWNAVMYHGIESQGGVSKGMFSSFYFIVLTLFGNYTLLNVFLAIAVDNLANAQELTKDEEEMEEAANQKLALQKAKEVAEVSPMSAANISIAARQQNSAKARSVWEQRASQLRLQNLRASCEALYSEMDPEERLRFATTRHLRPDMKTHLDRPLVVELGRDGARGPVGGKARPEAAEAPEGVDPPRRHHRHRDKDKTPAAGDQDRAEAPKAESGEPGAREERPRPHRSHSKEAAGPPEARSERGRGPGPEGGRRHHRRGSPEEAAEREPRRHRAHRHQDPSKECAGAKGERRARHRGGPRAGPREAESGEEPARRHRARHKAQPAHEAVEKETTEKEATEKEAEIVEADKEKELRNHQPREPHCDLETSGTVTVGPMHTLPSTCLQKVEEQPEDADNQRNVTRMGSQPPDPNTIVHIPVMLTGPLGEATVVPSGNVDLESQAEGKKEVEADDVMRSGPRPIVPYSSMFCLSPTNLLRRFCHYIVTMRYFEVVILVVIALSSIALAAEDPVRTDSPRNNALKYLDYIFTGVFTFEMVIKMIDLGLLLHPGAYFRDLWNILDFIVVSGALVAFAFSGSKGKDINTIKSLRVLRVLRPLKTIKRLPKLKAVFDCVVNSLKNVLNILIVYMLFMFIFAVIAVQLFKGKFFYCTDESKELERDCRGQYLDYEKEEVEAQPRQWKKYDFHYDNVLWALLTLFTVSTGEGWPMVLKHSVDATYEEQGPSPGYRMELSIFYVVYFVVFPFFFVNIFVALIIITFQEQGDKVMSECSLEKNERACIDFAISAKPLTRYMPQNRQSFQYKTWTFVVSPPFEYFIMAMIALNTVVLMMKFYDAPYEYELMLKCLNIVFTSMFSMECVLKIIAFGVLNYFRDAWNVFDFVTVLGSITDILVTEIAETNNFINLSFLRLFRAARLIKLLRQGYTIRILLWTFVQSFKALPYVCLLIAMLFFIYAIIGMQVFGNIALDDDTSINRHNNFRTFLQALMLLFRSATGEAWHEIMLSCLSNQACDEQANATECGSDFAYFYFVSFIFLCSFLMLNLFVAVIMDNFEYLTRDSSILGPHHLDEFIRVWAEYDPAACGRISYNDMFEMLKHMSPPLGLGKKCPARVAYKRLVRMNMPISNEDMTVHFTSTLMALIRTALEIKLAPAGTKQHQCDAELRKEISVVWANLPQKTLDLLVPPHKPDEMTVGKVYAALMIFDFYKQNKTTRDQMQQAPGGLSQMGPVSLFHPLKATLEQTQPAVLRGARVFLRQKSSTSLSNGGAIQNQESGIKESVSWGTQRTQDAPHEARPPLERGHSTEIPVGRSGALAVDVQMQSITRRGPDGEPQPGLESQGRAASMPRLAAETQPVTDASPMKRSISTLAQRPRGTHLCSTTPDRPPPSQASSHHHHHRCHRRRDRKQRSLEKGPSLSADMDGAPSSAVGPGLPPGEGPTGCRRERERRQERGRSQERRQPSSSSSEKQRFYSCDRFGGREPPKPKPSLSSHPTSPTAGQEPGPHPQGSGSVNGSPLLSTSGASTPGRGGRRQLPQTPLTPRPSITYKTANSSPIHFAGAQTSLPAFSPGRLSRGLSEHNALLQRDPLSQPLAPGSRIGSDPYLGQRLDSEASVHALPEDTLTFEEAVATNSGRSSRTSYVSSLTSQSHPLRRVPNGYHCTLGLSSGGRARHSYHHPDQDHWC
T1 sequence (Q02410 whole entry, the tested form may be a part): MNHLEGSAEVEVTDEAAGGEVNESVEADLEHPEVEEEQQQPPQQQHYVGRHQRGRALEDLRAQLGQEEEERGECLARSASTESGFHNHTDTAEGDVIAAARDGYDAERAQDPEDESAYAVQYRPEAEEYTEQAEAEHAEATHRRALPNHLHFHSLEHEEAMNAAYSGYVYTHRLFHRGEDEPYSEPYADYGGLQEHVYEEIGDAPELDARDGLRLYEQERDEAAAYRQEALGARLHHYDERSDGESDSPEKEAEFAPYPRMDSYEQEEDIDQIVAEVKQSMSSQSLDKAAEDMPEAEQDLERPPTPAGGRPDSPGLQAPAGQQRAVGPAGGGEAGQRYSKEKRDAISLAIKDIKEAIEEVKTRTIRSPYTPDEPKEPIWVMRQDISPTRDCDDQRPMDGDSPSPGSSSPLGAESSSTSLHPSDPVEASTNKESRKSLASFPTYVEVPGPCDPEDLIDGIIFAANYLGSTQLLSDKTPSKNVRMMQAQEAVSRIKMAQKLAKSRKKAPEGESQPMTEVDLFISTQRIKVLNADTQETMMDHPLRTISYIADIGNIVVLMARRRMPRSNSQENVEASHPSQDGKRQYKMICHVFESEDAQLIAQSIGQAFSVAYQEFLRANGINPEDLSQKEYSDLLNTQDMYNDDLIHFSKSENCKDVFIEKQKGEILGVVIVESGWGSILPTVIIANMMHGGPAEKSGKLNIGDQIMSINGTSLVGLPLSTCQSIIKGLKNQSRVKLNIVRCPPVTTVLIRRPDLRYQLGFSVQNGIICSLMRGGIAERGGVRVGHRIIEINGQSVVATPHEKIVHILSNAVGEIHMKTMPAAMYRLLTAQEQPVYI
Chain of E3 ubiquitin-protein ligase Mdm2 (Q00987 whole entry): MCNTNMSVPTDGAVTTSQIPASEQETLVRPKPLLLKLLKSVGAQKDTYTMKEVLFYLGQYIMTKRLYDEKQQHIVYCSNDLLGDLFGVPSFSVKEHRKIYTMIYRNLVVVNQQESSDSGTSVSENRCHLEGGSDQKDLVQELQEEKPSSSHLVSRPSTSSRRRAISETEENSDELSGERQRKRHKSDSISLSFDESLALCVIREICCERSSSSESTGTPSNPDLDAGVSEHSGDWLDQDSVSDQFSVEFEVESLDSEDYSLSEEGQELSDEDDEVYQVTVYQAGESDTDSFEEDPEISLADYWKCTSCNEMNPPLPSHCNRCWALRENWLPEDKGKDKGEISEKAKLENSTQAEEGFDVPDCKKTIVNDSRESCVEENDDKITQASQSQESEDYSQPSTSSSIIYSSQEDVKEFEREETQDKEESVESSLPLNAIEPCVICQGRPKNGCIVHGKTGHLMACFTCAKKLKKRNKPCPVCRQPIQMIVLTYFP
Chain of Ubiquitin carboxyl-terminal hydrolase BAP1 (Q92560 whole entry): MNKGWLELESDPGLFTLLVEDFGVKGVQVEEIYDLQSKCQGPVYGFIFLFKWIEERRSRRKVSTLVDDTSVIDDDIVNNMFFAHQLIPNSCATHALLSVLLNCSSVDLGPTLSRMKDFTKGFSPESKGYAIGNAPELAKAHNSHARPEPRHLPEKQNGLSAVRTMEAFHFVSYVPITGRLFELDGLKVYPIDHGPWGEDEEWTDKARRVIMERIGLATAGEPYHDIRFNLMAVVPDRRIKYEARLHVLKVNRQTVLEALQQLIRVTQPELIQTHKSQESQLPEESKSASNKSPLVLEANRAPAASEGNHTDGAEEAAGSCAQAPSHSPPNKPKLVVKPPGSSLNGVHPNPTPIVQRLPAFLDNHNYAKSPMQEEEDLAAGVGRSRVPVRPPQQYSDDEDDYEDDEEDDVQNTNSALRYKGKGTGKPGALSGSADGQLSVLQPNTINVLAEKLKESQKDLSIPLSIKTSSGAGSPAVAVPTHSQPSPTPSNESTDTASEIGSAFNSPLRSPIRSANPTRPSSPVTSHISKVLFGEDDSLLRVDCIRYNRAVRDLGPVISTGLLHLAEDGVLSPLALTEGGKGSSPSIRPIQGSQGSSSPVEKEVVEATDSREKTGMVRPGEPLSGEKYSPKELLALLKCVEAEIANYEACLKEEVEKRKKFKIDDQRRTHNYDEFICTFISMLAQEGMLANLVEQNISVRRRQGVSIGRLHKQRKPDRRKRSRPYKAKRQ
Chain of Protein Tat (P04608 whole entry): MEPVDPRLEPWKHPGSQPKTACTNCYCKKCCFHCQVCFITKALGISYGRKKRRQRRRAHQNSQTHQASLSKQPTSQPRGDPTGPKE
Chain of 5-hydroxytryptamine receptor 1A (P08908 whole entry): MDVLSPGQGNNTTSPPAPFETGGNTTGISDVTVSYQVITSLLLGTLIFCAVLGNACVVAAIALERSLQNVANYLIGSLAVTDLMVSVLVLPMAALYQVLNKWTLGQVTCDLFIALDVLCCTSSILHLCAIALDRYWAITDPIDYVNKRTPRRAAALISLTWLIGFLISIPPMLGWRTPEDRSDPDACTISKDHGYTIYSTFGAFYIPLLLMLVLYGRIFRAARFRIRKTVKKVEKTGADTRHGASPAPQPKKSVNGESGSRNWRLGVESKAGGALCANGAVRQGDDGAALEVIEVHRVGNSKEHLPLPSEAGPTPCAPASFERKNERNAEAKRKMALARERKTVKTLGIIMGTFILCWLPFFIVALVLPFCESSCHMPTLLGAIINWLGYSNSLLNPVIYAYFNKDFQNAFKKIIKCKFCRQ

CCN(CC)CCOc1ccccc1C(=O)CCc1ccccc1 [ETAFENONE]
IC50 (cells): > 33.3 µM (inactive)
IC50 [1]: > 10 µM (inactive)
IC50 [2]: 3.89 µM (active)
IC50 [3]: > 10 µM (inactive)

COc1ccc(NS(=O)(=O)c2cccc(C(=O)NNC(=O)c3cccn3C)c2)cc1
IC50 [4]: 23.5 µM (active)
IC50 [5]: 5.42 µM (active)
IC50 [6]: > 50 µM (inactive)
IC50 (Protein Tat): > 100 µM (active)

CCn1c(COc2ccc(Cl)c(C)c2)nnc1SCC(=O)N1CCCC1
IC50 [7]: > 100 µM (not active)

COc1ccc(-c2ccc([C@H]3[C@@H](C#N)N(C(=O)NC(C)C)[C@@H]3CO)cc2)cc1
AC50 [8]: 0.528 µM (active)
AC50 [9]: 0.725 µM (active)
AC50 [10]: 0.511 µM (active)
AC50 [11]: 0.472 µM (active)
AC50 [12]: > 39 µM (inactive)
AC50 [13]: 78 µM (active)
AC50 [14]: 14.7 µM (active)
AC50 [15]: 0.604 µM (active)

CC(CC(=O)Nc1ccc(F)c([N+](=O)[O-])c1)c1ccccc1 (stereo not given)
IC50 [16]: > 109 µM (inactive)
IC50 [17]: > 83.3 µM (inactive)

CCSc1nc2ccccc2n1C(=O)/C=C/c1ccc(OC)c(OC)c1
AC50 [18]: 5.58 µM (active)
IC50 [19]: 8.54 µM (active)
EC50 [20]: 5.41 µM (inconclusive)
EC50 (BJ [21]): > 150 µM (not active)
CC50 (Vero [22]): 20.2 µM (active)
EC50 (BJ [23]): 13.6 µM (active)
AC50 [24]: 5.86 µM (active)
IC50 (Vero [25]): 10.4 µM (active)
AC50 [26]: 47 µM (active)
AC50 [27]: 7.89 µM (active)
AC50 [28]: 5.61 µM (active)
EC50 [29]: 2.65 µM (active)
EC50 (BJ [30]): > 75 µM (inconclusive)
AC50 [31]: 0.962 µM (active)
AC50 [32]: 12.9 µM (active)
AC50 [33]: 4.61 µM (active)

N#Cc1c(NC(=O)CSc2nnnn2C2CCCCC2)sc2c1CCCC2
IC50 [34]: > 50 µM (not active)

CC(C)C[C@H](NC(=O)[C@H](Cc1ccccc1)NC(=O)c1cnccn1)B(O)O
IC50 [1]: 0.0078 µM (active)
IC50 [35]: 0.00636 µM (active)
IC50 [36]: 0.00365 µM (active)
IC50 [37]: 0.0032 µM (active)
IC50 [38]: 0.00513 µM (active)
IC50 [39]: 0.00315 µM (active)
IC50 [40]: 0.00241 µM (active)

CC(C)n1nc(C(=O)OCC(=O)N(C)C2CCS(=O)(=O)C2)c2ccccc2c1=O (stereo not given)
IC50 [41]: 35.5 µM (not active)

CCN(CC)c1nc(N2CCOCC2)c(C#N)c2c1CN(C)CC2
EC50 [42]: > 50 µM (not active)

COc1ccc(NC2=Nc3ccccc3N3C2=Nc2c(c(C)nn2-c2ccc(C)cc2)C3c2cccnc2)cc1 (stereo not given)
EC50 [43]: 53.8 µM (active)
CC50 [44]: > 50 µM (active)
EC50 [45]: > 195 µM (not active)
IC50 (Ephrin type-A receptor 4): 10.4 µM (active)
EC50 [46]: > 38 µM (not active)
